From PMC11149339, “Necessity for higher teicoplanin doses in older adults: a multicenter prospective observational study in China” (BMC Geriatrics, 2024)
Where two headings read alike, the source gives them in different places.

Columns and labels:
[1] = Therapeutic drug monitoring of teicoplanin trough concentration (Cmin) during treatment, LC-MS/MS; type: in vivo, human; details: for target concentration achievement rate (≥ 10 mg/L): TDM≥15d; for TDM ≤ 7d (teicoplanin trough concentration) / TDM ≥ 15d (teicoplanin trough concentration): median [IQR], LC-MS/MS
Protocol: Teicoplanin (Targocid, Sanofi, Dublin, Ireland) was administered intravenously for 30 min. The prescribed dose regimens were at the discretion of treating physicians, and the recommended regimens were not always followed.
Blood samples (5 mL) were collected from the elbow into ethylenediaminetetraacetic acid-containing Vacutainers® (Becton Dickinson, Milan, Italy) in the morning before teicoplanin administration and after drug withdrawal. Samples were promptly refrigerated and centrifuged at 2500 × g for 10 min before 2 mL of supernatant was preserved at -20 °C for subsequent analysis. Teicoplanin concentrations were determined using liquid chromatography-tandem mass spectrometry. The linear range of the method was 1.0–100.0 mg/L, and the lower limit of quantification was 1.0 mg/L. The relative standard deviation of intra- and inter-batch precision was ≤ 10%.
Teicoplanin concentrations were dynamically monitored. Concentrations at 3, ≤ 7, 8–14, and ≥ 15 days after the first dose and within 2 h of the next scheduled dose were recorded as TDM3d, TDM≤7d, TDM8-14d, and TDM≥15d, respectively. Concentrations at 3, ≤ 7, 8–14, and ≥ 15 days after the last teicoplanin dose (withdrawal) were recorded as TDMw3d, TDMw≤7d, TDMw8-14d, and TDMw≥15d. respectively (Fig. 1a). The Cmin target was ≥ 10 mg/L [6, 7, 23]; a concentration < 10 mg/L was considered suboptimal. Average TDM (TDMa) was defined as the mean Cmin after 3 days of treatment.

[2] = Nephrotoxicity (acute kidney injury) during teicoplanin treatment; type: in vivo, human
Text: Patients with renal impairment at baseline were excluded. Nephrotoxicity was defined as acute renal impairment indicated by a serum creatinine increase of > 50% from baseline.

[3] = Hepatotoxicity during teicoplanin treatment; type: in vivo, human
Text: Patients with abnormal liver function at baseline were excluded. Hepatotoxicity was defined as an increase in the alanine aminotransferase or aspartate aminotransferase concentration to more than three times the upper limit of the institution’s normal reference ranges.

[4] = Thrombocytopenia during teicoplanin treatment; type: in vivo, human
Text: Patients with platelet counts < 100 × 10^9/L at baseline were excluded. Thrombocytopenia was defined as a decrease in the platelet count of > 30% from baseline.

[5] = in vivo, cited from earlier work
Text: There are few studies on the optimal dose regimen and target concentration of teicoplanin in older adults.

[6] = ≤ 7 days after first dose, LR-A + MR-A
[7] = ≤ 7 days after first dose, LR-B + MR-A
[8] = ≤ 7 days after first dose, LR-B + MR-B
[9] = ≤ 7 days after first dose, LR-C + MR-B
[10] = ≤ 7 days after first dose, LR-C + MR-C
[11] = ≥ 15 days after first dose, LR-A + MR-A
[12] = ≥ 15 days after first dose, LR-B + MR-A
[13] = ≥ 15 days after first dose, LR-B + MR-B
[14] = ≥ 15 days after first dose, LR-C + MR-B

Teicoplanin
target concentration achievement rate (≥ 10 mg/L) ([1]; LR-B + MR-B regimen): 100% | target concentration achievement rate (≥ 10 mg/L) ([1]; LR-C + MR-B regimen): 100% | patients achieving therapeutic concentrations ([1]; after 14 days of administration, all patients): more than 80% | patients with TDM 10–20 mg/L ≤ 7d, N (%) [1, 6]: 6(12.2) | patients with TDM < 10 mg/L ≤ 7d, N (%) [1, 6]: 40(81.7) | patients with TDM > 20 mg/L ≤ 7d, N (%) [1, 6]: 3(6.1) | TDM ≤ 7d (teicoplanin trough concentration) ([1]; ≤ 7 days after first dose, LR-A + MR-A (200 mg once daily, then 200 mg once daily)): 6.4[4.7,8.2] mg/L | patients with TDM 10–20 mg/L ≤ 7d, N (%) [1, 7]: 10(18.5) | patients with TDM < 10 mg/L ≤ 7d, N (%) [1, 7]: 41(75.9) | patients with TDM > 20 mg/L ≤ 7d, N (%) [1, 7]: 3(5.6) | TDM ≤ 7d (teicoplanin trough concentration) ([1]; ≤ 7 days after first dose, LR-B + MR-A (400 mg once daily, then 200 mg once daily)): 7.2[5.5,10.0] mg/L | patients with TDM 10–20 mg/L ≤ 7d, N (%) [1, 8]: 2(28.6) | patients with TDM < 10 mg/L ≤ 7d, N (%) [1, 8]: 3(42.8) | patients with TDM > 20 mg/L ≤ 7d, N (%) [1, 8]: 2(28.6) | TDM ≤ 7d (teicoplanin trough concentration) ([1]; ≤ 7 days after first dose, LR-B + MR-B (400 mg once daily, then 400 mg once daily)): 12.42[8.3,22.0] mg/L | patients with TDM 10–20 mg/L ≤ 7d, N (%) [1, 9]: 9(56.2) | patients with TDM < 10 mg/L ≤ 7d, N (%) [1, 9]: 7(43.8) | patients with TDM > 20 mg/L ≤ 7d, N (%) [1, 9]: 0 | TDM ≤ 7d (teicoplanin trough concentration) ([1]; ≤ 7 days after first dose, LR-C + MR-B (400 mg at 12-h intervals, then 400 mg once daily)): 11.0[7.0,12.6] mg/L | patients with TDM 10–20 mg/L ≤ 7d, N (%) [1, 10]: 8(57.1) | patients with TDM < 10 mg/L ≤ 7d, N (%) [1, 10]: 2(14.3) | patients with TDM > 20 mg/L ≤ 7d, N (%) [1, 10]: 4(28.6) | TDM ≤ 7d (teicoplanin trough concentration) ([1]; ≤ 7 days after first dose, LR-C + MR-C (400 mg at 12-h intervals, then 400 mg twice daily)): 14.4[12.0,21.2] mg/L | TDM ≤ 7d (teicoplanin trough concentration) ([1]; ≤ 7 days after first dose, all patients (N = 204), iv): 7.6[5.6,12.2] mg/L | patients having suboptimal concentrations (< 10 mg/L), TDM≤7d ([1]; ≤ 7 days after first dose, all patients, 93 patients): 66.4% | patients with TDM 10–20 mg/L ≥ 15d, N (%) [1, 11]: 16(59.3) | patients with TDM < 10 mg/L ≥ 15d, N (%) [1, 11]: 6(22.2) | patients with TDM > 20 mg/L ≥ 15d, N (%) [1, 11]: 5(18.5) | TDM ≥ 15d (teicoplanin trough concentration) ([1]; ≥ 15 days after first dose, LR-A + MR-A (200 mg once daily, then 200 mg once daily)): 12.7[10.1,17.4] mg/L | patients with TDM 10–20 mg/L ≥ 15d, N (%) [1, 12]: 15(57.7) | patients with TDM < 10 mg/L ≥ 15d, N (%) [1, 12]: 4(15.4) | patients with TDM > 20 mg/L ≥ 15d, N (%) [1, 12]: 7(26.9) | TDM ≥ 15d (teicoplanin trough concentration) ([1]; ≥ 15 days after first dose, LR-B + MR-A (400 mg once daily, then 200 mg once daily)): 15.7[11.9,22.0] mg/L | patients with TDM 10–20 mg/L ≥ 15d, N (%) [1, 13]: 1(50.0) | patients with TDM < 10 mg/L ≥ 15d, N (%) [1, 13]: 0 | patients with TDM > 20 mg/L ≥ 15d, N (%) [1, 13]: 1(50.0) | TDM ≥ 15d (teicoplanin trough concentration) ([1]; ≥ 15 days after first dose, LR-B + MR-B (400 mg once daily, then 400 mg once daily)): 20.3[13.8,20.4] mg/L | patients with TDM 10–20 mg/L ≥ 15d, N (%) [1, 14]: 1(33.3) | patients with TDM < 10 mg/L ≥ 15d, N (%) [1, 14]: 0 | patients with TDM > 20 mg/L ≥ 15d, N (%) [1, 14]: 2(66.7) | TDM ≥ 15d (teicoplanin trough concentration) ([1]; ≥ 15 days after first dose, LR-C + MR-B (400 mg at 12-h intervals, then 400 mg once daily)): 23.0[19.4,28.6] mg/L | TDM ≥ 15d (teicoplanin trough concentration) ([1]; ≥ 15 days after first dose, all patients (N = 204), iv): 15.8[11.0,21.8] mg/L | patients having suboptimal concentrations (< 10 mg/L), TDM≥15d ([1]; ≥ 15 days after first dose, all patients, 10 patients): 17.0% | incidence of acute kidney injury (AKI) / nephrotoxicity ([2]; TDMa < 10 mg/L (5/52)): 9.6% | incidence of acute kidney injury (AKI) / nephrotoxicity ([2]; TDMa = 10–20 mg/L (6/50)): 12.0% | incidence of acute kidney injury (AKI) / nephrotoxicity ([2]; TDMa = 20–40 mg/L (4/18)): 22.2% | incidence of acute kidney injury (AKI) / nephrotoxicity ([2]; all evaluable patients (15/120), serum creatinine increase > 50% from baseline): 12.5% | incidence of hepatotoxicity ([3]; TDMa < 10 mg/L (2/65)): 3.1% | incidence of hepatotoxicity ([3]; TDMa = 10–20 mg/L (3/57)): 5.3% | incidence of hepatotoxicity ([3]; TDMa = 20–40 mg/L (1/26)): 3.8% | incidence of hepatotoxicity ([3]; all evaluable patients (6/148), ALT or AST more than three times the upper limit of normal): 4.1% | incidence of thrombocytopenia ([4]; TDMa < 10 mg/L (16/49)): 32.7% | incidence of thrombocytopenia ([4]; TDMa = 10–20 mg/L (12/42)): 28.6% | incidence of thrombocytopenia ([4]; TDMa = 20–40 mg/L (7/20)): 35.0% | incidence of thrombocytopenia ([4]; all evaluable patients (35/111), platelet count decrease > 30% from baseline): 31.5% | average elimination half-life ([5]; human): 107 h | half-life of teicoplanin ([5]; human): 71 to 80 h | half-life of teicoplanin [5]: 71 to 163 h
